In patent publication US10821177B2, “Induction of differential stress resistance and uses thereof” (University of Southern California, priority 2007, dated 2020):
Where two headings read alike, the source gives them in different places. Marks after values point to notes of the source that are not given here.

Columns and labels:
LID mice [1] = assay: Multiple treatments with doxorubicin in LID mice; assay type: in vivo, mouse; details: doxorubicin 20 mg/kg then 28 mg/kg 22 days later
Procedure: FIG. 22. Resistance to multiple treatments with doxorubicin. Doxorubicin was intravenously administered at 20 mg/kg on Day 0 and 28 mg/kg on Day 22 (n=5). The toxicity, evaluated by (A) percent survival and (B) daily weight measurements, are shown. p-value was calculated by log rank test (p<0.05).

A/J mice [2] = assay: High-dose doxorubicin toxicity in A/J mice with or without 48-hour STS; assay type: in vivo, mouse
Procedure: FIG. 20. A/J mice, weighing 18-20 g, were starved for 48 hours (STS), and followed by a single intravenous injection of high dose doxorubicin (16 mg/kg). The toxicity, evaluated by (A) percent survival and (B) daily weight measurements, are shown.

athymic (Nude-nu) mice = assay: Resistance to high-dose etoposide (100 mg/kg) in athymic (Nude-nu) mice; assay type: in vivo, mouse; details: 100 mg/kg etoposide
Procedure: In other experiments, four-week old female athymic (Nude-nu) mice (Harlan), weighing 20-22 gr were used to evaluate stress resistance after a 48-hour starvation. These animals were i.v.-injected with 100 mg/Kg etoposide and then monitored routinely for weight loss and general behavior.

NXS2 neuroblastoma cells [3] = assay: Effect of octreotide on etoposide cytotoxicity in NXS2 cells, trypan blue; assay type: cell-based, mouse; details: 10 or 50 micromolar octreotide, etoposide 1-3 μM, 72 hours
Procedure: FIG. 8. Survival of neuroblastoma (NXS2)-bearing mice. All mice were inoculated i.v. with 200,000 NXS2 cells/mouse on day 4. The different groups were treated as follows: A) Gr. 1: Control (16 mice)=i.v. inoculation with NSX2 tumor cells on day 4. Gr. 2: Oct (8 mice)=pre-treatment with 1 mg/kg/day octreotide for 4 days before and after tumor injection on day 4. Gr. 3: Oct/STS/Oct (8 mice)=pre-treatment with 1 mg/kg/day Oct before tumor cell injection on day 4+48-hour STS on days 4-6+post-treatment with 1 mg/kg/day Oct on days 8-11. Gr. […] Viability was determined by counting the cells with a contrast phase microscope. The proportion of dead (or living) cells was calculated by dividing the number of dead (or living) cells by the total number of cells per field. […]
NXS2 neuroblastoma cells treated with different concentrations of etoposide (1-3 μM) in presence or absence of octreotide (10 and 50 μM) for 72 hours were harvested by scraping, washed with complete medium, and incubated with trypan blue (0.04%; Sigma; St. Louis, Mo.) for 1 minute at 37° C. The cells were then placed in a Burker chamber (Tecnovetro, Monza Milan, Italy) and counted by viewing with a contrast phase microscope (Olympus Optical Co LTD, Tokyo, Japan). […] The proportion of dead (or living) cells was calculated by dividing the number of dead (or living) cells by the total number of cells per field.

A/J mice [4] = assay: Resistance to high-dose etoposide (80 mg/kg) in A/J mice after STS and/or octreotide
Procedure: (§1) N J mice were pretreated with 1 mg/kg/day doses of human octreotide (OCT, ProSpec-Tany TechnoGene, Rehovot, Israel) for 4 days given slowly through the tail vein in a volume of 100 pl and then injected intravenously with murine neuroblastoma NXS2 cell line (200,000/mouse), as previously described. After tumor cell inoculum, some groups of animals were starved for 48 hours and then i.v. treated with 80 mg/kg of Etoposide Teva (Teva Pharma B.V., Mijdrecht, Holland), administered as a single dose. Additional daily doses of OCT were administered for 4 days after chemotherapy. Control groups of mice without diet starvation and OCT treatment were also investigated.
(§2) To determine toxicity and efficacy, mice were monitored routinely for weight loss and general behavior. […] Survival time was used as the main criterion for determining the efficacy of each treatment.
as §1, with “Six-to-seven-week-old female A/J mice, weighing 15-18 g were purchased from Harlan Laboratories (Harlan Italy, S. Pietro al Natisone, Italy) and housed in sterile enclosures under specific virus and antigen-free conditions. All procedures involving mice and their care were reviewed and approved by licensing and ethical committee of the National cancer Research Institute, Genoa, Italy, and by the Italian Ministry of Health. A/J” for “N J”, “μl” for “pl”, “injection,” for “inoculum,”

mice = assay: Octreotide protection of mice against paraquat; assay type: in vivo, mouse; details: octreotide treatment
NXS2 neuroblastoma cells [5] = details: for No toxicity deaths: deaths / mice
Description: (§3) The murine NX3IT28 cell line was generated by hybridization of the GD2-negative C1300 murine neuroblastoma cell line (A/J background) with murine dorsal root ganglional cells from C57BL16J mice, as previously described. The NXS2 sublime was then created by the selection of NX3IT28 cells with high GD2 expression.
Six-to-seven-week-old female NJ mice, weighing 15-18 g were purchased from Harlan Laboratories (Harlan Italy, S. Pietro al Natisone, Italy) and housed in sterile enclosures under specific virus and antigen-free conditions. All procedures involving mice and their care were reviewed and approved by licensing and ethical committee of the National Cancer Research Institute, Genoa, Italy, and by the Italian Ministry of Health.
as §1, §2
The statistical significance of differential survival between experimental groups of animals was determined by Kaplan-Meier curves and log-rank […] test by the use of StatDirect statistical software (Camcode, Ashwell, UK).
as §3, with “C57BL/6J” for “C57BL16J”, “subline” for “sublime”
as §1, with “Six-to-seven-week-old female A/J mice, weighing 15-18 g were purchased from Harlan Laboratories (Harlan Italy, S. Pietro al Natisone, Italy) and housed in sterile enclosures under specific virus and antigen-free conditions. All procedures involving mice and their care were reviewed and approved by licensing and ethical committee of the National cancer Research Institute, Genoa, Italy, and by the Italian Ministry of Health. A/J” for “N J”, “μl” for “pl”, “injection,” for “inoculum,”
The statistical significance of differential survival between experimental groups of animals was determined by Kaplan-Meier curves and log-rank (Peto) test by the use of StatDirect statistical software (CamCode, Ashwell, UK). In some experiments, four-week-old female CD1 mice (Harlan), weighing 18-20 g were used to evaluate stress resistance after 60-hour diet starvation. These animals, i.v. injected with 110 mg/kg etoposide, were monitored routinely for weight loss and general behavior. Survival time was used as the main criterion for determining the differential stress resistance after short-term starvation.

CD1 mice = assay: Resistance to high-dose etoposide (110 mg/kg) in CD1 mice after 60-hour starvation; assay type: in vivo, mouse; details: 110 mg/Kg etoposide i.v., with or without 60-hour STS
Procedure: In some experiments, four-week-old female CD1 mice (Harlan), weighing 18-20 g were used to evaluate stress resistance after 60 hours of starvation. These animals, i.v. injected with 110 mg/kg etoposide, were monitored routinely for weight loss and general behavior. Survival time was used as the main criterion for determining the differential stress resistance after short-term starvation.

LID mice [6] = assay: High-dose etoposide in LID mice; assay type: in vivo, mouse; details: 100 mg/kg etoposide i.v.; difference in survival not significant
Procedure: FIG. 21. Resistance to high-dose chemotherapy in LID mice. All mice received an i.v. injection of 100 mg/kg etoposide and were single caged throughout the experiment. The toxicity, evaluated by (A) percent survival and (B) daily weight measurements, are shown. p-value was calculated by log rank test (p=0.06, n=10).

[7] = humans; cited from earlier work
[8] = Table 1, mice with metastases / mice
[9] = Table 1, mice with metastases / mice, 200,000 NXS2 cells i.v.
[10] = Table 2, all mice followed until death, necropsy
[11] = Table 2, early etoposide toxicity deaths not considered
[12] = Table 2, followed until death, necropsy

SMILES | Survival Range (NXS2 neuroblastoma cells [5]; Table 1) [days] | Hemorrhagic ascites (NXS2 neuroblastoma cells [5]; Table 1, affected mice / mice) | Adrenal glaud (metastases) (NXS2 neuroblastoma cells [5]; [8]) | Kidneys (metastases) (NXS2 neuroblastoma cells [5]; [8]) | Ovaries (metastases) (NXS2 neuroblastoma cells [5]; [8]) | Liver (metastases) (NXS2 neuroblastoma cells [5]; [9]) | Survival Range (NXS2 neuroblastoma cells [5]; Table 2) [days] | Liver (metastases) (NXS2 neuroblastoma cells [5]; [10]) | No toxicity deaths (NXS2 neuroblastoma cells [5]; Table 2) | Median survival (NXS2 neuroblastoma cells [5]; [11]) [days] | Adrenal gland (metastases) (NXS2 neuroblastoma cells [5]; [12]) | Hemorrhagic ascites (NXS2 neuroblastoma cells [5]; [12]) | Kidneys (metastases) (NXS2 neuroblastoma cells [5]; [12]) | Ovaries (metastases) (NXS2 neuroblastoma cells [5]; [12]) | further results
COc1cccc2c1C(=O)c1c(O)c3c(c(O)c1C2=O)C[C@@](O)(C(=O)CO)C[C@@H]3O[C@H]1C[C@H](N)[C@H](O)[C@H](C)O1 [doxorubicin] | – | – | – | – | – | – | – | – | – | – | – | – | – | – | survival (LID mice [1]; LID mice): All LID mice survived; mice that died (LID mice [1]; control mice): 75%; survival (A/J mice [2]; 16 mg/Kg doxorubicin i.v. after 48-hour STS (n=5)): protected all mice; lethality (A/J mice [2]; 16 mg/Kg doxorubicin i.v., mice not pre-starved): killed all the mice
C[C@@H](O)[C@@H]1NC(=O)[C@H](CCCCN)NC(=O)[C@@H](Cc2c[nH]c3ccccc23)NC(=O)[C@H](Cc2ccccc2)NC(=O)[C@@H](NC(=O)[C@H](N)Cc2ccccc2)CSSC[C@@H](C(=O)N[C@H](CO)[C@@H](C)O)NC1=O [OCT, octreotide] | 31 to 37 | 8/8 | 2/8 | 8/8 | 8/8 | 8/8 | 31 to 37 | 8/8 | 0/8 | 33 | 2/8 | 8/8 | 8/8 | 8/8 | mice that died (athymic (Nude-nu) mice; octreotide co-treatment and/or 48-hour starvation): all; sensitization of NXS2 cells to etoposide treatment (NXS2 neuroblastoma cells [3]): did not sensitize; protection against etoposide toxicity (A/J mice [4]; octreotide alone, mice): not sufficient to protect; protection of mice against the superoxide generator paraquat (mice): sufficient to protect; Median survival (NXS2 neuroblastoma cells [5]; Table 1): 33 days; protection against NXS2-dependent death (NXS2 neuroblastoma cells [5]; octreotide alone, absence of short-term starvation): did not protect
COc1cc([C@@H]2c3cc4c(cc3[C@@H](O[C@@H]3O[C@@H]5CO[C@@H](C)O[C@H]5[C@H](O)[C@H]3O)[C@H]3COC(=O)[C@H]23)OCO4)cc(OC)c1O [Eto, etoposide] | 87 to 90 | 1/3* | 0/3* | 1/3* | 1/3* | 1/3* | 87 to 140 | 3/3 | 3/6 | 130 | 0/3 | 3/3 | 3/3 | 0/3 | mice killed by etoposide (CD1 mice): all; mice killed by etoposide (athymic (Nude-nu) mice; nude mice): 56%; weight change after etoposide (athymic (Nude-nu) mice; nude mice): lost weight; resistance of LID mice compared to controls (LID mice [6]): less resistant; mice killed by etoposide (A/J mice [4]; 80 mg/Kg etoposide i.v., A/J mice): 43%; weight lost in the four days after etoposide treatment (A/J mice [4]; 80 mg/Kg etoposide, control mice): approximately 20%; excreted within 48 hours [7]: up to 90%; day until which mice did not develop tumors (NXS2 neuroblastoma cells [5]; NXS2-injected mice without STS): 80 days; Median survival (days) (NXS2 neuroblastoma cells [5]; Table 1): 90* days
